Assay results from patent publication US7915291B2, “Hepatitis C virus inhibitors” (Bristol-Myers Squibb Company, priority 2002, dated 2011).
pEC50, pIC50: −log10 of the molar value. Where two headings read alike, the source gives them in different places.

Columns and labels:
[1] = target: HCV NS3/4A protease complex, BMS strain (UniProt P27958, C1454S/C1711G, species not given/STRAIN_BMS); assay: Recombinant HCV NS3/4A protease complex FRET peptide assay (BMS strain); type: biochemical, HCV genotype 1a
How it was run: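 Percent inhibition taken from the linear-range fluorescence slope relative to uninhibited control, read kinetically for about 15 min at 25° C. Enzyme (2-3 nM, BMS NS3/4A complex, lysine-tailed, Ni-NTA purified) met compound for 1 min before 2 μM FRET depsipeptide substrate started cleavage.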

[2] = system: HCV replicon in Huh7 cells; assay: HCV replicon cell-based assay; design: species or system HCV strain 1B; conditions: Hepatitis C virus, Huh-7; HCV replicon, Huh7 cells; read-out: EC50 range
[3] = NS3/4A BMS strain; read-out: IC50 range

SMILES | pIC50 [1, 3] | pEC50 [2] | pIC50 ([1]; read-out: IC50 range; NS3/4A BMS strain)
C=C[C@@H]1C[C@]1(NC(=O)[C@@H]1C[C@@H](Oc2ccnc3cc(OC)ccc23)CN1C(=O)[C@@H](NC(=O)OC(C)(C)C)C(C)(C)C)C(=O)NS(=O)(=O)C1CCC1 [Compound 374, BOCNH-P3(L-t -BuGly)-P2[(4R)-(7-methoxyquinoline-4-oxo)-S-proline]-P1(1R,2S Vinyl Acca)-CONHSO2-Cyclobutane] | > 7.00 | 6.00 to 7.00 | –
C=C[C@@H]1C[C@]1(NC(=O)[C@@H]1C[C@@H](Oc2ccnc3cc(OC)ccc23)CN1C(=O)[C@@H](NC(=O)OC(C)(C)C)C(C)(C)C)C(=O)NS(=O)(=O)C1CC1 [Compound 375] | > 7.00 | > 7.00 | –
C=CCCCCC[C@H](NC(=O)OC(C)(C)C)C(=O)N1C[C@H](Oc2ccnc3cc(OC)ccc23)C[C@H]1C(=O)N[C@]1(C(=O)NS(=O)(=O)C2CC2)C[C@H]1C=C [Compound 377] | > 7.00 | 6.00 to 7.00 | –
C=C[C@@H]1C[C@]1(NC(=O)[C@@H]1C[C@@H](Oc2ccnc3cc(OC)ccc23)CN1C(=O)[C@@H](NC(=O)OC(C)(C)C)C(C)C)C(=O)NS(=O)(=O)C1CC1 [Compound 378] | > 7.00 | > 7.00 | –
C=C[C@@H]1C[C@]1(NC(=O)[C@@H]1C[C@@H](Oc2cc(-c3ccccn3)nc3cc(OC)ccc23)CN1C(=O)[C@@H](NC(=O)OC(C)(C)C)C(C)(C)C)C(=O)NS(=O)(=O)C1CC1 [Compound 379] | > 7.00 | > 7.00 | –
C=C[C@@H]1C[C@]1(NC(=O)[C@@H]1C[C@@H](Oc2nccc3cc(OC)ccc23)CN1C(=O)[C@@H](NC(=O)OC1CCCC1)C(C)(C)C)C(=O)NS(=O)(=O)C1CCC1 [Compound 380] | > 7.00 | 6.00 to 7.00 | –
C=C[C@@H]1C[C@]1(NC(=O)[C@@H]1C[C@@H](Oc2nccc3cc(OC)ccc23)CN1C(=O)[C@@H](NC(=O)OCC(C)(C)C)C(C)(C)C)C(=O)NS(=O)(=O)C1CCC1 [Compound 381] | – | 6.00 to 7.00 | > 7.00
C=C[C@@H]1C[C@]1(NC(=O)[C@@H]1C[C@@H](Oc2nccc3cc(OC)ccc23)CN1C(=O)[C@@H](NC(=O)OC(C)(C)CC)C(C)(C)C)C(=O)NS(=O)(=O)C1CCC1 [Compound 382] | > 7.00 | 6.00 to 7.00 | –
C=C[C@@H]1C[C@]1(NC(=O)[C@@H]1C[C@@H](Oc2nccc3cc(OC)ccc23)CN1C(=O)[C@@H](NC(=O)NC(C)(C)C)C(C)(C)C)C(=O)NS(=O)(=O)C1CCC1 [Compound 383] | > 7.00 | > 7.00 | –
C=C[C@@H]1C[C@]1(NC(=O)[C@@H]1C[C@@H](Oc2nccc3cc(OC)ccc23)CN1C(=O)[C@@H](NC(=O)OC1(C)CCCC1)C(C)(C)C)C(=O)NS(=O)(=O)C1CCC1 [Compound 384] | > 7.00 | > 7.00 | –
C=C[C@@H]1C[C@]1(NC(=O)[C@@H]1C[C@@H](Oc2nc(N3CCOCC3)cc3cc(OC)ccc23)CN1C(=O)[C@@H](NC(=O)OC(C)(C)C)C(C)(C)C)C(=O)NS(=O)(=O)C1CC1 [Compound 385] | > 7.00 | > 7.00 | –
C=C[C@@H]1C[C@]1(NC(=O)[C@@H]1C[C@@H](Oc2ccnc3ccccc23)CN1C(=O)[C@@H](NC(=O)OC(C)(C)C)C(C)(C)C)C(=O)NS(C)(=O)=O [Compound 386] | 6.00 to 7.00 | 5.00 to 6.00 | –
C=C[C@@H]1C[C@]1(NC(=O)[C@@H]1C[C@@H](Oc2cc(C(F)(F)F)nc3ccc(C)cc23)CN1C(=O)[C@@H](NC(=O)OC(C)(C)C)C(C)(C)C)C(=O)NS(=O)(=O)C1CC1 [Compound 410] | > 7.00 | > 7.00 | –
C=C[C@@H]1C[C@]1(NC(=O)[C@@H]1C[C@@H](Oc2cc(-c3ccccc3)ncn2)CN1C(=O)[C@@H](NC(=O)OC(C)(C)C)C(C)(C)C)C(=O)NS(=O)(=O)C1CC1 [Compound 411] | > 7.00 | 6.00 to 7.00 | –
C=C[C@@H]1C[C@]1(NC(=O)[C@@H]1C[C@@H](Oc2cc(-c3cccs3)ncn2)CN1C(=O)[C@@H](NC(=O)OC(C)(C)C)C(C)(C)C)C(=O)NS(=O)(=O)C1CC1 [Compound 412] | > 7.00 | > 7.00 | –
C=C[C@@H]1C[C@]1(NC(=O)[C@@H]1C[C@@H](Oc2cc(-c3ccccc3)nc(-c3cccs3)c2)CN1C(=O)[C@@H](NC(=O)OC(C)(C)C)C(C)(C)C)C(=O)NS(=O)(=O)C1CC1 [Compound 413] | > 7.00 | > 7.00 | –
C=C[C@@H]1C[C@]1(NC(=O)[C@@H]1C[C@@H](Oc2cc(-c3ccccc3)nc(-c3ccc(OC)cc3)c2)CN1C(=O)[C@@H](NC(=O)OC(C)(C)C)C(C)(C)C)C(=O)NS(=O)(=O)C1CC1 [Compound 414] | > 7.00 | > 7.00 | –
C=C[C@@H]1C[C@]1(NC(=O)[C@@H]1C[C@@H](Oc2cc(-c3ccccc3)nc(-c3ccccc3)c2)CN1C(=O)[C@@H](NC(=O)OC(C)(C)C)C(C)(C)C)C(=O)NS(=O)(=O)C1CC1 [Compound 415] | > 7.00 | > 7.00 | –
C=C[C@@H]1C[C@]1(NC(=O)[C@@H]1C[C@@H](Oc2cncc(-c3ccccc3)c2)CN1C(=O)[C@@H](NC(=O)OC(C)(C)C)C(C)(C)C)C(=O)NS(=O)(=O)C1CC1 [Compound 420] | > 7.00 | 6.00 to 7.00 | –

SMILES | pIC50 [1, 3] | pEC50 [2] | pIC50 ([1]; read-out: IC50 range; NS3/4A BMS strain)
C=C[C@@H]1C[C@]1(NC(=O)[C@@H]1C[C@@H](Oc2ccnc(-c3ccccc3)c2)CN1C(=O)[C@@H](NC(=O)OC1CCCC1)C(C)(C)C)C(=O)NS(=O)(=O)C1CC1 [Compound 421] | > 7.00 | 6.00 to 7.00 | –
C=C[C@@H]1C[C@]1(NC(=O)[C@@H]1C[C@@H](Oc2cncc(-c3ccncc3)c2)CN1C(=O)[C@@H](NC(=O)OC(C)(C)C)C(C)(C)C)C(=O)NS(=O)(=O)C1CC1 [Compound 422] | > 7.00 | 5.00 to 6.00 | –
C=C[C@@H]1C[C@]1(NC(=O)[C@@H]1C[C@@H](Oc2cncc(-c3ccoc3)c2)CN1C(=O)[C@@H](NC(=O)OC(C)(C)C)C(C)(C)C)C(=O)NS(=O)(=O)C1CC1 [Compound 424] | > 7.00 | 6.00 to 7.00 | –
C=C[C@@H]1C[C@]1(NC(=O)[C@@H]1C[C@@H](Oc2ccnc(Br)c2)CN1C(=O)[C@@H](NC(=O)OC1CCCC1)C(C)(C)C)C(=O)NS(=O)(=O)C1CC1 [Compound 425] | 6.00 to 7.00 | 5.00 to 6.00 | –
C=C[C@@H]1C[C@]1(NC(=O)[C@@H]1C[C@@H](Oc2ccnc(-c3ccoc3)c2)CN1C(=O)[C@@H](NC(=O)OC1CCCC1)C(C)(C)C)C(=O)NS(=O)(=O)C1CC1 [Compound 426] | > 7.00 | 6.00 to 7.00 | –
C=C[C@@H]1C[C@]1(NC(=O)[C@@H]1C[C@@H](Oc2ccnc(-c3ccc(F)cc3)c2)CN1C(=O)[C@@H](NC(=O)OC1CCCC1)C(C)(C)C)C(=O)NS(=O)(=O)C1CC1 [Compound 427] | > 7.00 | 6.00 to 7.00 | –
C=C[C@@H]1C[C@]1(NC(=O)[C@@H]1C[C@@H](Oc2ccnc(-c3ccc(OC)cc3)c2)CN1C(=O)[C@@H](NC(=O)OC1CCCC1)C(C)(C)C)C(=O)NS(=O)(=O)C1CC1 [Compound 428] | > 7.00 | 6.00 to 7.00 | –
C=C[C@@H]1C[C@]1(NC(=O)[C@@H]1C[C@@H](Oc2ccnc(-c3cccs3)c2)CN1C(=O)[C@@H](NC(=O)OC1CCCC1)C(C)(C)C)C(=O)NS(=O)(=O)C1CC1 [Compound 429] | > 7.00 | > 7.00 | –
C=C[C@@H]1C[C@]1(NC(=O)[C@@H]1C[C@@H](Oc2ccnc(-c3ccsc3)c2)CN1C(=O)[C@@H](NC(=O)OC1CCCC1)C(C)(C)C)C(=O)NS(=O)(=O)C1CC1 [Compound 430] | > 7.00 | 6.00 to 7.00 | –
C=C[C@@H]1C[C@]1(NC(=O)[C@@H]1C[C@@H](Oc2ccnc(-c3nccs3)c2)CN1C(=O)[C@@H](NC(=O)OC1CCCC1)C(C)(C)C)C(=O)NS(=O)(=O)C1CC1 [Compound 431] | > 7.00 | 6.00 to 7.00 | –
C=C[C@@H]1C[C@]1(NC(=O)[C@@H]1C[C@@H](Oc2cncc(-c3nccs3)c2)CN1C(=O)[C@@H](NC(=O)OC(C)(C)C)C(C)(C)C)C(=O)NS(=O)(=O)C1CC1 [Compound 432] | > 7.00 | 6.00 to 7.00 | –
C=C[C@@H]1C[C@]1(NC(=O)[C@@H]1C[C@@H](Oc2cncc(-c3csc(C)n3)c2)CN1C(=O)[C@@H](NC(=O)OC(C)(C)C)C(C)(C)C)C(=O)NS(=O)(=O)C1CC1 [Compound 433] | 6.00 to 7.00 | 5.00 to 6.00 | –
C=C[C@@H]1C[C@]1(NC(=O)[C@@H]1C[C@@H](Oc2ccnc(-c3cccn3C)c2)CN1C(=O)[C@@H](NC(=O)OC(C)(C)C)C(C)(C)C)C(=O)NS(=O)(=O)C1CC1 [Compound 434] | > 7.00 | 6.00 to 7.00 | –
C=C[C@@H]1C[C@]1(NC(=O)[C@@H]1C[C@@H](Oc2cccc(-c3ccoc3)n2)CN1C(=O)[C@@H](NC(=O)OC(C)(C)C)C(C)(C)C)C(=O)NS(=O)(=O)C1CC1 [Compound 435] | > 7.00 | 6.00 to 7.00 | –
C=C[C@@H]1C[C@]1(NC(=O)[C@@H]1C[C@@H](Oc2cccc(-c3ccccc3)n2)CN1C(=O)[C@@H](NC(=O)OC(C)(C)C)C(C)(C)C)C(=O)NS(=O)(=O)C1CC1 [Compound 436] | > 7.00 | 6.00 to 7.00 | –
C=C[C@@H]1C[C@]1(NC(=O)[C@@H]1C[C@@H](Oc2cc(C)nc(-c3ccccc3)c2)CN1C(=O)[C@@H](NC(=O)OC(C)(C)C)C(C)(C)C)C(=O)NS(=O)(=O)C1CC1 [Compound 437] | > 7.00 | 6.00 to 7.00 | –
C=C[C@@H]1C[C@]1(NC(=O)[C@@H]1C[C@@H](Oc2cc(C)nc(-c3cccs3)c2)CN1C(=O)[C@@H](NC(=O)OC(C)(C)C)C(C)(C)C)C(=O)NS(=O)(=O)C1CC1 [Compound 438] | > 7.00 | 6.00 to 7.00 | –
C=CC1CC1(NC(=O)[C@@H]1C[C@@H](Oc2cc(C(F)(F)F)nc3ccc(F)cc23)CN1C(=O)[C@@H](NC(=O)OC(C)(C)C)C(C)(C)C)C(=O)NS(=O)(=O)C1CC1 (some centres unmarked) [Compound 450] | > 7.00 | 6.00 to 7.00 | –
